Data reported in paper PMC6273765, “Synthesis and Biological Evaluation of Novel Aromatic Imide-Polyamine Conjugates” (Molecules, 2016).

Experiments:
MDA-MB-231 cells = assay: MTT cytotoxicity, MDA-MB-231; format: cell-based; conditions: Homo sapiens, 48 h, mean of three experiments
[1] = system: H22 mouse hepatocellular carcinoma; assay: Subcutaneous H22 solid tumor growth inhibition; format: in vivo, Kunming mice; conditions: 11e 1 mg/kg, amonafide 5 mg/kg
Source text: However, few in vivo studies provided limited messages for rational design of the conjugates in comparison to the plentiful in vitro data. Indeed, there are significant discrepancies between in vitro and in vivo experiments in many cases. In vivo trials, based on preliminary in vitro screens, provide more valuable messages for further drug development. To further evaluate the antitumor activity of 11e in vivo, we chose three H22 (mice hepatoma cell line) tumor transplant models: solid tumor (tumor growth inhibition evaluation), ascites tumor (live time evaluation), and pulmonary metastasis tumor (tumor metastasis evaluation).
All animal care and experimentation conformed to the Guide for the Care and Use of Laboratory Animals published by Henan University (HUSOM2016-162). For solid tumor development, 30 male Kunming mice (Laboratory Animal Center of Henan, Zhengzhou, China) aged 5 weeks (weighing 18–22 g) were injected subcutaneously with 2 × 10^6 H22 cells. […] On day 16, the mice were killed by cervical vertebra dislocation, and solid tumors were removed and weighed. The inhibitory rate was calculated as follows: inhibitory rate (%) = [(A − B)/A] × 100, where A was the mean tumor weight of the control group and B was that of the drug treated or positive group.

HepG2 cells [2] = assay: ROS generation, DCFH-DA (HCS); format: cell-based, human; conditions: HepG2, 3, 6, 12 μM, 48 h
Experimental: It is known that polyamine conjugates may produce reactive oxygen species (ROS). The elevated ROS could bring corresponding influences on MMP loss and LYS/pH destabilization, which generally activates the cell death. Therefore, the ROS generation was detected by the DCFH-DA (2′,7′-dichlorodihydrofluorescein diacetate) experiment.
HepG2 cells were seeded in 96 well plates (6 × 10^3 cells/well), cultured for 24 h to obtain a confluent monolayer, and then treated with various concentrations of tested compounds for 48 h. Cells were incubated with Rh123 (0.25 nM), or DCFH-DA (10 μM), or Lyso-Tracker Red (50 nM ) in the dark at 37 °C for 30 min. for the measurement of mitochondrial membrane potential (MMP), or reactive oxygen species (ROS) or lysosomal mass/pH staining, respectively. After being washed with PBS to remove excess dyes, cells were further stained with the nuclear dye Hoechst 33,342 (10 μM) in the dark at 37 °C for 20 min. Images were acquired on the ArrayScan HCS reader using the Target Activation BioApplication software.

HepG2 cells [3] = assay: Mitochondrial membrane potential, Rh123 (HCS); format: cell-based, human; conditions: HepG2, 3, 6, 12 μM, 48 h
Source text: (§1) To appraise if novel naphthalimide-polyamine conjugates induce cell apoptosis, morphological study was applied after HepG2 cells were stained with AO/EB. […] To furnish more credible information about the apoptosis of HepG2 cells induced by compound 11e, we used the high content screening (HCS) technique to detect related apoptosis indicators. Mitochondria are vital cell organelles in the process of transmitting apoptosis signals, whereas the mitochondrial membrane potential (MMP) is a critical parameter related to mitochondrial function in cells. As a MMP specific cationic fluorescent dye, Rh123 is used to measure the change of MMP, which accumulates in healthy mitochondria with intact membrane potential and is absent in the depolarized mitochondria. Lysosomes, as cellular targets in cancer therapy, participate in various cell death profiles such as apoptosis and senescence. Thus, the lysosomal mass/pH (Lys/pH) variation was detected by a basic fluorescent probe Lyso-Tracker Red which selectively accumulates in acidic lysosomes during cytotoxicity occurs.
(§2) HepG2 cells were seeded in 96 well plates (6 × 10^3 cells/well), cultured for 24 h to obtain a confluent monolayer, and then treated with various concentrations of tested compounds for 48 h. […] Images were acquired on the ArrayScan HCS reader using the Target Activation BioApplication software.

HepG2 cells [4] = assay: Lysosomal mass/pH, Lyso-Tracker Red (HCS); format: cell-based, human; conditions: HepG2, 3, 6, 12 μM, 48 h
Source text: as §1, §2

HCT-116 cells = assay: MTT cytotoxicity, HCT-116; format: cell-based, human; conditions: Homo sapiens, HCT-116, 48 h, mean of three experiments
HepG2 cells [5] = assay: Apoptosis by AO/EB staining (HCS); format: cell-based, human; conditions: HepG2, 3, 6, 12 μM, 48 h
Source text: as §1, with “Lysosomes, as cellular targets in cancer therapy, participate in various cell death profiles such as apoptosis and senescence.” left out
HepG2 cells were seeded in 96 well plates (6 × 10^3 cells/well), cultured for 24 h to obtain a confluent monolayer and then treated with various concentrations of tested compounds for 48 h. […] Images were obtained on the High Content Screening (HCS, ArrayScan, Thermo Scientific) reader using the Target Activation BioApplication software (Thermo Scientific).

HepG2 cells [6] = assay: MTT cytotoxicity, HepG2; format: cell-based, human; conditions: Homo sapiens, HepG2, 48 h, mean of three experiments
H22 cells = assay: Survival time in mice bearing H22 cells (ascites); format: in vivo, Kunming mice; conditions: 11e 1 mg/kg, amonafide 5 mg/kg i.v.
Experimental: Impacts of 11e on survival time in H22-bearing mice were evaluated by measuring the extension of the lifespan. The median survival time (MST) in control mice was (12.75 ± 2.5) days.
For calculation of the survival time, 30 male Kunming mice were inoculated via intraperitoneal (i.p.) injection with 1 × 10^6 H22 cells/mouse on day 0 and were randomly divided into three groups. […] The median survival time (MST) for each group was observed, and the antitumor activity of the drug was evaluated by measuring the increase of the lifespan. The extended lifespan rate was calculated as follows: extend rate (%) = (MST treated group/MST control group) × 100.

K562 cells = assay: MTT cytotoxicity, K562; format: cell-based, human; conditions: Homo sapiens, K562, 48 h, mean of three experiments
QSG-7701 cells = assay: MTT cytotoxicity, QSG-7701 normal hepatocyte; format: cell-based; conditions: QSG7701, 48 h, normal hepatocyte cell line
[7] = system: H22 cells lung metastasis; assay: H22 lung metastasis model; format: in vivo, Kunming mice; conditions: 11e 1 mg/kg
Source text: Metastasis is the process by which tumors spread from the primary organ in which they arise to other sites in the body. In most cases, tumors that stay confined to one organ will not be fatal, tumors that have spread to other organs have a greater potential for causing harm. To test whether 11e was effective against an established lung metastasis, we injected H22 cells intravenously into 24 Kunming mice (5 × 10^6 cells each mouse). To ensure that all mice bore actively growing lung tumors before the drug treatment, pulmonary cancer was allowed to develop for 10 days.
H22 cells (5 × 10^6 cells per mouse) for Kunming mice were injected intravenous (i.v.) through the tail vein for tumor passive metastasis. To ensure all mice bore actively growing lung tumors before the drug treatment, pulmonary metastasis was allowed to develop for 10 days. […] On day 18, mice were killed by cervical vertebra dislocation, and lungs were removed and weighed, and then fixed in Bouin’s fluid. After the lungs were fixed, lung metastases nodus was numbered.

Cl.Cl.Cl.Cl.NCCCNCCCCNCCCNCC(=O)NCCCN1C(=O)c2cccc3cccc(c23)C1=O [11e, 2-(3-(4-(3-Aminopropylamino)butylamino)propylamino)-N-(3-(1,3-dioxo-1H-benzo[de]isoquinolin-2(3H)-yl)propyl)acetamide tetrahydrochloride]
IC50 (MDA-MB-231 cells): 12 µM | Inhibition Rate (tumor weight) ([1]; caudal vein, 7 consecutive days, vs normal saline): 70.92% | Tumor Weight ([1]; caudal vein, 7 consecutive days, control 2.17 ± 0.22 g): 0.63 ± 0.21 g | No. Dead ([1]; solid tumor model): 0/9 | ROS generation (DCFH-DA) (HepG2 cells [2]): apparently increased ROS | green fluorescence of Rh123 (MMP) (HepG2 cells [3]): significantly decreased in a dose-dependent manner | Lyso-Tracker Red fluorescence (lysosomal mass/pH) (HepG2 cells [4]): remarkable accruement of red fluorescence | IC50 (HCT-116 cells): 5.12 µM | apoptosis induction (AO/EB) (HepG2 cells [5]): obvious apoptosis | IC50 (HepG2 cells [6]): 6.33 µM | life span increase vs control group (H22 cells): 2.41 fold | median survival time (MST) (H22 cells; 7 consecutive days, control 12.75 ± 2.5 days): 30.75 ± 4.4 days | IC50 (K562 cells): 2.86 µM | IC50 (QSG-7701 cells): 53.9 µM | Metastatic Focus (No.) ([7]; amonafide 5 mg/kg i.v., 7 consecutive days, control 110.04 ± 15.38): 40.25 ± 8.15 | No. Dead ([7]; amonafide 5 mg/kg, lung metastasis model): 0/8
